Measurements taken from patent US20150010928A1, “MEANS AND METHODS FOR ASSESSING AN ENDOCRINE DISEASE OR DISORDER” (priority 2012, published 2015).
Marks after values point to notes of the source that are not given here.

System: female rats
Test: Plasma metabolite profiling (GC-MS, LC-MS, SPE-LC-MS) in female rats dosed once daily over 28 days (OECD 407)
Format: in vivo, rat
Details: high dose
Outline: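 Metabolites were measured by GC-MS (derivatised) and reversed-phase LC-MS, with steroids by online SPE-LC-MS, in plasma drawn from fasted rats on days 7, 14 and 28 of once-daily dosing (5/sex/group). Values are ratios versus sex-matched untreated controls, normalized to pool samples, with Welch-test p-values.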

SMILES: C[C@@H]1CC2=CC(=O)CC[C@@H]2[C@H]2CC[C@@]3(C)[C@@H](CC[C@]3(C)O)[C@@H]21 [Mibolerone]
- 3-Hydroxybutyrate (f7, female rats, Table 15a): 1.36 *
- DAG (C18:1,C18:2) (f7, female rats, Table 15a): 0.43
- Glutamate (f7, female rats, Table 15a): 1.66 *
- Glycine (f7, female rats, Table 15a): 1.19 *
- Phosphatidylcholine (C16:0,C20:5) (f7, female rats, Table 15a): 0.56
- TAG (C16:0,C16:1) (f7, female rats, Table 15a): 2.26
- TAG (C16:0,C18:1,C18:3) (f7, female rats, Table 15a): 1.22
- TAG (C16:0,C18:2) (f7, female rats, Table 15a): 0.87
- TAG (C18:1,C18:2) (f7, female rats, Table 15a): 0.77
- TAG (C18:2,C18:2) (f7, female rats, Table 15a): 0.9
- TAG (C18:3, C18:2, C18:1) (f7, female rats, Table 15a): 0.99
- TAG (DAG-Fragment) (f7, female rats, Table 15a): 0.95
- TAG No 059 (f7, female rats, Table 15a): 1.08 *
- Threonic acid (f7, female rats, Table 15a): 1.15 *
- trans-4-Hydroxyproline (f7, female rats, Table 15a): 1.8 *
- Androstenedione (f7, female rats, Table 15b): 0.14 *
- Arginine (f7, female rats, Table 15b): 0.85 *
- Campesterol (f7, female rats, Table 15b): 0.16
- Ceramide (d18:1,C24:0) (f7, female rats, Table 15b): 0.12 *
- Lactate (f7, female rats, Table 15b): 0.62 *
- Lysine (f7, female rats, Table 15b): 0.68 *
- Metanephrine (f7, female rats, Table 15b): 0.62 *
- Normetanephrine (f7, female rats, Table 15b): 1.15
- Phosphatidylcholine (C16:0,C20:5) (f7, female rats, Table 15b): 0.56 *
- Phosphatidylcholine (C16:0,C22:6) (f7, female rats, Table 15b): 0.18 *
- Phosphatidylcholine (C18:0, C20:3) (f7, female rats, Table 15b): 0.2 *
- Phosphatidylcholine (C18:0,C18:1) (f7, female rats, Table 15b): 0.21 *
- Progesterone (f7, female rats, Table 15b): 0.62
- Pyruvate (f7, female rats, Table 15b): 0.75 *
- Sphingomyelin (d18:1,C23:0) (f7, female rats, Table 15b): 0.06 *
- Sphingomyelin (d18:1,C24:0) (f7, female rats, Table 15b): 0.11 *
- Urea (f7, female rats, Table 15b): 0.65 *
- 3-Hydroxybutyrate (f14, female rats, Table 15a): 1.73 *
- DAG (C18:1,C18:2) (f14, female rats, Table 15a): 2.88 *
- Glutamate (f14, female rats, Table 15a): 1.67 *
- Glycine (f14, female rats, Table 15a): 1.22 *
- Phosphatidylcholine (C16:0,C20:5) (f14, female rats, Table 15a): 1.54 *
- TAG (C16:0,C16:1) (f14, female rats, Table 15a): 12.22 *
- TAG (C16:0,C18:1,C18:3) (f14, female rats, Table 15a): 8.88 *
- TAG (C16:0,C18:2) (f14, female rats, Table 15a): 6.82 *
- TAG (C18:1,C18:2) (f14, female rats, Table 15a): 8.37 *
- TAG (C18:2,C18:2) (f14, female rats, Table 15a): 6.69 *
- TAG (C18:3, C18:2, C18:1) (f14, female rats, Table 15a): 5.98 *
- TAG (DAG-Fragment) (f14, female rats, Table 15a): 7.86 *
- TAG No 059 (f14, female rats, Table 15a): 4.67 *
- Threonic acid (f14, female rats, Table 15a): 1.18 *
- trans-4-Hydroxyproline (f14, female rats, Table 15a): 2.44 *
- Androstenedione (f14, female rats, Table 15b): 0.11 *
- Arginine (f14, female rats, Table 15b): 0.98 *
- Campesterol (f14, female rats, Table 15b): 0.89
- Ceramide (d18:1,C24:0) (f14, female rats, Table 15b): 2.02 *
- Lactate (f14, female rats, Table 15b): 0.74 *
- Lysine (f14, female rats, Table 15b): 0.63 *
- Metanephrine (f14, female rats, Table 15b): 0.72 *
- Normetanephrine (f14, female rats, Table 15b): 0.66 *
- Phosphatidylcholine (C16:0,C20:5) (f14, female rats, Table 15b): 1.54
- Phosphatidylcholine (C16:0,C22:6) (f14, female rats, Table 15b): 0.84 *
- Phosphatidylcholine (C18:0, C20:3) (f14, female rats, Table 15b): 0.98
- Phosphatidylcholine (C18:0,C18:1) (f14, female rats, Table 15b): 0.93
- Progesterone (f14, female rats, Table 15b): 0.13 *
- Pyruvate (f14, female rats, Table 15b): 0.83 *
- Sphingomyelin (d18:1,C23:0) (f14, female rats, Table 15b): 1.26
- Sphingomyelin (d18:1,C24:0) (f14, female rats, Table 15b): 1.33 *
- Urea (f14, female rats, Table 15b): 0.48 *
- 3-Hydroxybutyrate (f28, female rats, Table 15a): 1.06
- DAG (C18:1,C18:2) (f28, female rats, Table 15a): 2.27 *
- Glutamate (f28, female rats, Table 15a): 1.73 *
- Glycine (f28, female rats, Table 15a): 1.18 *
- Phosphatidylcholine (C16:0,C20:5) (f28, female rats, Table 15a): 1.32 *
- TAG (C16:0,C16:1) (f28, female rats, Table 15a): 5.83 *
- TAG (C16:0,C18:1,C18:3) (f28, female rats, Table 15a): 6.23 *
- TAG (C16:0,C18:2) (f28, female rats, Table 15a): 4.89 *
- TAG (C18:1,C18:2) (f28, female rats, Table 15a): 4.95 *
- TAG (C18:2,C18:2) (f28, female rats, Table 15a): 4.92 *
- TAG (C18:3, C18:2, C18:1) (f28, female rats, Table 15a): 4.74 *
- TAG (DAG-Fragment) (f28, female rats, Table 15a): 5.74 *
- TAG No 059 (f28, female rats, Table 15a): 3.5 *
- Threonic acid (f28, female rats, Table 15a): 1.94 *
- trans-4-Hydroxyproline (f28, female rats, Table 15a): 2 *
- Androstenedione (f28, female rats, Table 15b): 0.07 *
- Arginine (f28, female rats, Table 15b): 0.83 *
- Campesterol (f28, female rats, Table 15b): 0.54 *
- Ceramide (d18:1,C24:0) (f28, female rats, Table 15b): 1.53 *
- Lactate (f28, female rats, Table 15b): 0.73 *
- Lysine (f28, female rats, Table 15b): 0.57 *
- Metanephrine (f28, female rats, Table 15b): 0.66 *
- Normetanephrine (f28, female rats, Table 15b): 0.78 *
- Phosphatidylcholine (C16:0,C20:5) (f28, female rats, Table 15b): 1.32
- Phosphatidylcholine (C16:0,C22:6) (f28, female rats, Table 15b): 0.74 *
- Phosphatidylcholine (C18:0, C20:3) (f28, female rats, Table 15b): 0.91 *
- Phosphatidylcholine (C18:0,C18:1) (f28, female rats, Table 15b): 0.86
- Progesterone (f28, female rats, Table 15b): 0.06 *
- Pyruvate (f28, female rats, Table 15b): 0.65 *
- Sphingomyelin (d18:1,C23:0) (f28, female rats, Table 15b): 0.63 *
- Sphingomyelin (d18:1,C24:0) (f28, female rats, Table 15b): 1.05
- Urea (f28, female rats, Table 15b): 0.88 *
